pEC50: −log10 of the molar value. Bridge positions count the residues as written; N and C are the ends. Square brackets hold non-standard residues; d marks the D form. Peptide text beside a SMILES is read from it.
How the values were obtained:
[1] = target: T1, ANP receptor (Sus scrofa, UniProt F1SFW3); assay: cGMP production in ANP receptor-expressing LLC-PK1 cells; type: cell-based; details: 30 min stimulation, 10^-6M through 10^-12M, NR = No response detected
T1 construct: ANP receptor-expressing LLC-PK1 cells; endogenous in cells; host or cells: LLC-PK1 cells
T1 sequence (F1SFW3 29-1057): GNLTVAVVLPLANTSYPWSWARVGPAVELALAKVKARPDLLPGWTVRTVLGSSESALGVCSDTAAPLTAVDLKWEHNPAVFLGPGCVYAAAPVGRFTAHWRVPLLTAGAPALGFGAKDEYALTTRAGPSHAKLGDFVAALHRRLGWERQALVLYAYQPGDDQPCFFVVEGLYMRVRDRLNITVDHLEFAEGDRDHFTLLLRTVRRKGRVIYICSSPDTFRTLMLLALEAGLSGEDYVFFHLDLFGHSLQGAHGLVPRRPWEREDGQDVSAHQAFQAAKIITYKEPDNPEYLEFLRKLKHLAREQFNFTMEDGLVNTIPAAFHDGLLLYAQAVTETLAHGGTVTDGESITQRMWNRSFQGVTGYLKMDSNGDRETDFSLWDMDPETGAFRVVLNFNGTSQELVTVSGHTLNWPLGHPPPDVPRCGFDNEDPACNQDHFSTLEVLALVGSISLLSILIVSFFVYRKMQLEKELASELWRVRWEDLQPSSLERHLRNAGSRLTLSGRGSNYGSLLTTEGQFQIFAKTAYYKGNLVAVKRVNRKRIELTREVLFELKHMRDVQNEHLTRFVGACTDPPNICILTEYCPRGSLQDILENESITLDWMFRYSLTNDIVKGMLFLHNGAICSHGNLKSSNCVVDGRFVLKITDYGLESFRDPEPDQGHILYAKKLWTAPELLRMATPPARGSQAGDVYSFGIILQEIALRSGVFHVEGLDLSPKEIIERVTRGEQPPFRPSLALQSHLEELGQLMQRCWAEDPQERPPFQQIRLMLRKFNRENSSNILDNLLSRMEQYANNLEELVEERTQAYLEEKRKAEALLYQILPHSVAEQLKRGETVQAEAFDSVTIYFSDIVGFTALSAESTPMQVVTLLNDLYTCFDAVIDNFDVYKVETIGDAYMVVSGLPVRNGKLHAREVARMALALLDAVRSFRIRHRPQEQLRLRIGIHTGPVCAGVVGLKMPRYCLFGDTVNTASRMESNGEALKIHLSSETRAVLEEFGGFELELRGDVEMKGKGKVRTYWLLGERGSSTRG
Protocol: The bifunctional hormone was tested on ANP receptor-expressing LLC-PK1 cells and on MCR1 receptor-expressing B16-F1 cells. Both cell types were cultured 24 hours before the stimulation, in 96-well plates, at a concentration of 1.0×10^5 cells/ml. Before stimulation, cells were starved 2 hours in DPBS only and incubated 10 min in assay buffer (DPBS containing 20 mM HEPES, 0.1% BSA and 500 μM IBMX). The dose response curve of the bifunctional hormone was done for 30 minutes with concentrations of 10^−6M through 10^−12M. Supernatant was collected and cAMP (B16-F1) or cGMP (LLC-PK1) was measured with a radiolabeled kit from GE Healthcare Company.

[2] = tested on: Sprague-Dawley (SD) rats; assay: Prophylactic treatment, acute kidney dysfunction following renal ischemia (renal artery clamping); type: in vivo, rat
Protocol: Plasma creatinine and urea were determined at different times. Data were analyzed by two way ANOVA using Bonferroni test for significance against the saline-treated group (n=3 per group; sal n=6).
Animals. Sprague-Dawley (SD) rats (male, weighing from 300 to 330 g) were obtained from Charles River Inc. Animals were maintained on standard laboratory chow under a 12:12 light:dark cycle.
Surgical preparation. The rats were anesthetized with Isoflurane 2.5% for the duration of the experiment. Animals were placed under radiant warmer to keep the temperature at 37.5° C. A blood sample (0.5 ml) was collected via tail vein artery before the renal artery clamping. Once the animal was anesthetized, placed in a supine position, a 1.5 cm flank incision was made on the right side of the abdominal wall. The right kidney was then exposed and the ureter, renal artery and renal vein were carefully dissected and ligated. The kidney was removed after cutting renal pedicle. A same incision was made on the left side of the abdominal wall. The left kidney is exposed and the renal vascular pedicle is carefully dissected. The renal vascular pedicle was then occluded by placing a vascular clip (Micro Serrefine™, Fine Science Tools) for a period of 30 or 45 minutes. This renal vascular pedicle clamping produced an acute renal artery occlusion (RAO). The kidney was inspected for ischemia as well as for good reperfusion after removing vascular clip for 2 minutes. The wound of abdominal wall was closed in two layers. The muscular layer was closed with a running 3-0 silk suture and the skin was closed with suture clips (Fine Science Tools). 21 hours after right nephrectomy and left renal artery clipping procedure, the rats were put in the metabolic cages for urine collection (in pre-weighed Tube 50 ml) for 3 hours. Urine volume was measured by weighing the tube containing urine. Then, the animals were anesthetized with Isoflurane 2.5%. Left kidney was removed and kept in formalin for future histology. […]

[3] = tested on: Sprague-Dawley (SD) rats; assay: Chronic infusion, acute kidney dysfunction following renal ischemia; type: in vivo, rat; details: FIG. 5
Protocol: After removing the renal artery clamps, peptide #2 or #33 was infused at two doses using intraperitoneally implanted Alzet™ minipumps (2ML1; delivery rate 10 μl/h). Plasma creatinine and BUN were determined at the indicated times. Data were analyzed by two way ANOVA using Bonferroni test for significance against the saline-treated group (n=3 per group; sal n=6); and
Surgical preparation. The rats were anesthetized with Isoflurane 2.5% for the duration of the experiment. Animals were placed under radiant warmer to keep the temperature at 37.5° C. A blood sample (0.5 ml) was collected via tail vein artery before the renal artery clamping. Once the animal was anesthetized, placed in a supine position, a 1.5 cm flank incision was made on the right side of the abdominal wall. The right kidney was then exposed and the ureter, renal artery and renal vein were carefully dissected and ligated. The kidney was removed after cutting renal pedicle. A same incision was made on the left side of the abdominal wall. The left kidney is exposed and the renal vascular pedicle is carefully dissected. The renal vascular pedicle was then occluded by placing a vascular clip (Micro Serrefine™, Fine Science Tools) for a period of 30 or 45 minutes. This renal vascular pedicle clamping produced an acute renal artery occlusion (RAO). The kidney was inspected for ischemia as well as for good reperfusion after removing vascular clip for 2 minutes. The wound of abdominal wall was closed in two layers. The muscular layer was closed with a running 3-0 silk suture and the skin was closed with suture clips (Fine Science Tools). 21 hours after right nephrectomy and left renal artery clipping procedure, the rats were put in the metabolic cages for urine collection (in pre-weighed Tube 50 ml) for 3 hours. Urine volume was measured by weighing the tube containing urine. Then, the animals were anesthetized with Isoflurane 2.5%. Left kidney was removed and kept in formalin for future histology. Blood was collected by cardiac puncture into a heparinized syringe (3 ml) and immediately transferred into appropriately labeled tubes that contain heparin as the anticoagulant. Following collection, all blood samples were kept on ice and centrifuged for 2 min at 13000 rpm. Plasma and urine aliquots (400 μl) were removed and stored at −80° C.
In order to test the effect of chronic infusion of the bifunctional hormone on kidney function on kidney injury, peptides #2 or #33 were infused at 1.5 or 15 μg/kg/h for 24 h after renal artery clamp removal. Plasma creatinine and urea nitrogen were determined at 24 h after the injury. The experimental procedures (animal model, dosing solutions) were the same as those described in Example 5 above.

[4] = 15 μg/kg/h infused 1 h before and 1 h after renal artery clamping, vs saline group, each time point, FIG. 3
[5] = 1.5 or 15 μg/kg/h for 24 h after clamp removal (Alzet minipumps), vs saline-treated animals at 24 h

In the case of `CC[C@H](C)[C@@H]1NC(=O)[C@H](CCCNC(=N)N)NC(=O)[C@H](CC(=O)O)NC(=O)[C@H](CCSC)NC(=O)[C@H](CCCNC(=N)N)NC(=O)CNC(=O)CNC(=O)[C@H](Cc2ccccc2)NC(=O)[C@@H](NC(=O)[C@H](CCSC)NC(=O)[C@@H]2CCCN2C(=O)[C@H](CCCCN)NC(=O)CNC(=O)[C@H](Cc2c[nH]c3ccccc23)NC(=O)[C@H](CCCNC(=N)N)NC(=O)[C@@H](Cc2ccccc2)NC(=O)[C@H](Cc2c[nH]cn2)NC(C)=O)CSSC[C@@H](C(=O)N[C@@H](CC(N)=O)C(=O)N[C@@H](CO)C(=O)N[C@@H](Cc2ccccc2)C(=O)N[C@@H](CCCNC(=N)N)C(=O)N[C@@H](Cc2ccc(O)cc2)C(N)=O)NC(=O)CNC(=O)[C@H](CC(C)C)NC(=O)CNC(=O)[C@H](CO)NC(=O)[C@H](CCC(N)=O)NC(=O)[C@H](C)NC(=O)CNC1=O` [SEQ ID NO: 33, Ac-H-f-R-W-G-K-P-M-[C-F-G-G-R-M-D-R-I-G-A-Q-S-G-L-G-C]-N-S-F-R-Y-NH2] (Ac-H[dF]RWGKPMCFGGRMDRIGAQSGLGCNSFRY-NH2; disulfide 9-25), the pEC50 [1] was 7.16, the “blood urea nitrogen (BUN)” value [2, 4] was “significantly reduced the elevation” and the plasma creatinine [2, 4] was “significantly reduced the elevation”. For the same compound, the “diminishing kidney injury, compared with native ANP” value ([2]; prophylactic use, 15 μg/kg/h) was “as effective as native ANP”, the “dose dependence of reduction in the blood markers of renal ischemia” value ([3]; 1.5 and 15 μg/kg/h for 24 h) was “dose-dependent reduction” and the BUN [3, 5] was “reduced plasma creatinine and BUN significantly”. For the same compound, the plasma creatinine [3, 5] was “reduced plasma creatinine and BUN significantly”, the “reduction in BUN levels, compared with native ANP” value ([3]; 24-hour infusion) was “more pronounced reduction” and the “reduction in creatinine levels, compared with native ANP” value ([3]; 24-hour infusion) was “more pronounced reduction”.

From patent US8822413B2, “Bifunctional hormone having alpha-MSH activity and natriuretic peptide activity and uses thereof” (Theratechnologies Inc., priority 2007, dated 2014)
